Assay results as given in PubChem BioAssay AID1745844 (Carcinogenic Potency Database (CPDB), 2022).
Activity calls are given as the source filed them. How the calls were made is not given here.

Tested on: rodent lifetime carcinogenesis bioassay, tumor incidence TD50
Assay: carcinogenic potency in animals, long-term in vivo studies, CPDB compilation (AID 1745844)

O=C1C2CC=CCC2C(=O)N1SC(Cl)(Cl)Cl (configuration not stated)
inactive: carcinogen call (mouse, strain B6AKF1, females, oral dosing, site: any site (literature study), lesion: several types, types named in the paper, dosed 76 weeks, study length 76 weeks) negative | carcinogen call (mouse, strain B6AKF1, females, oral dosing, site: liver, lesion: hepatoma, dosed 76 weeks, study length 76 weeks) negative | carcinogen call (mouse, strain B6AKF1, females, oral dosing, site: lung, lesion: adenoma, dosed 76 weeks, study length 76 weeks) negative | TD50 (mouse, strain B6AKF1, males, oral dosing, site: any site (literature study), lesion: several types, types named in the paper, dosed 76 weeks, study length 76 weeks) 161 mg/kg/day | TD50 (mouse, strain B6AKF1, males, oral dosing, site: liver, lesion: hepatoma, dosed 76 weeks, study length 76 weeks) 195 mg/kg/day | TD50 (mouse, strain B6AKF1, males, oral dosing, site: lung, lesion: adenoma, dosed 76 weeks, study length 76 weeks) 3620 mg/kg/day | carcinogen call (mouse, strain B6C3F1, females, in feed, site: any site (literature study), lesion: several types, types named in the paper, dosed 80 weeks, study length 91 weeks) negative | TD50 (mouse, strain B6C3F1, females, oral dosing, site: any site (literature study), lesion: several types, types named in the paper, dosed 76 weeks, study length 76 weeks) 244 mg/kg/day | carcinogen call (mouse, strain B6C3F1, females, oral dosing, site: liver, lesion: hepatoma, dosed 76 weeks, study length 76 weeks) negative | carcinogen call (mouse, strain B6C3F1, females, oral dosing, site: lung, lesion: several types, types named in the paper, dosed 76 weeks, study length 76 weeks) negative | carcinogen call (mouse, strain B6C3F1, males, in feed, site: any site (literature study), lesion: several types, types named in the paper, dosed 80 weeks, study length 91 weeks) negative | TD50 (mouse, strain B6C3F1, males, oral dosing, site: any site (literature study), lesion: several types, types named in the paper, dosed 76 weeks, study length 76 weeks) 42.5 mg/kg/day | TD50 (mouse, strain B6C3F1, males, oral dosing, site: liver, lesion: hepatoma, dosed 76 weeks, study length 76 weeks) 86.1 mg/kg/day | TD50 (mouse, strain B6C3F1, males, oral dosing, site: lung, lesion: adenoma, dosed 76 weeks, study length 76 weeks) 187 mg/kg/day | TD50 (rat, strain Osborne-Mendel, females, in feed, site: adrenal gland, lesion: cortical adenoma + cortical carcinoma, dosed 80 weeks, study length 109 weeks) 253 mg/kg/day | carcinogen call (rat, strain Osborne-Mendel, females, in feed, site: any site (literature study), lesion: several types, types named in the paper, dosed 80 weeks, study length 113 weeks) negative | TD50 (rat, strain Osborne-Mendel, males, in feed, site: any site (literature study), lesion: several types, types named in the paper, dosed 80 weeks, study length 113 weeks) 4780 mg/kg/day
11500 mg/kg/day: TD50 (rat, strain Charles River CD (Sprague-Dawley), males, in feed, site: kidney, lesion: tubule carcinoma, dosed 104 weeks, study length 104 weeks)
17900 mg/kg/day: TD50 (rat, strain Charles River CD (Sprague-Dawley), females, in feed, site: kidney, lesion: several types, types named in the paper, dosed 104 weeks, study length 104 weeks) | TD50 (rat, strain Charles River CD (Sprague-Dawley), females, in feed, site: kidney, lesion: tubule carcinoma, dosed 104 weeks, study length 104 weeks)
3810 mg/kg/day: TD50 (rat, strain Charles River CD (Sprague-Dawley), males, in feed, site: kidney, lesion: tubule adenoma, dosed 104 weeks, study length 104 weeks)
active: TD50 (mouse, strain B6C3F1, females, in feed, site: duodenum, lesion: adenocarcinoma in adenomatous polyp, dosed 80 weeks, study length 90 weeks) 21600 mg/kg/day | TD50 (mouse, strain B6C3F1, males, in feed, site: duodenum, lesion: adenocarcinoma in adenomatous polyp, dosed 80 weeks, study length 90 weeks) 15100 mg/kg/day | TD50 (mouse, strain B6C3F1, males, in feed, site: duodenum, lesion: adenomatous polyp, NOS or adenocarcinoma in adenomatous polyp, dosed 80 weeks, study length 90 weeks) 7390 mg/kg/day | TD50 (mouse, strain Charles River CD1, females, in feed, site: small intestine, lesion: adenoma, dosed 113 weeks, study length 113 weeks) 13300 mg/kg/day | TD50 (mouse, strain Charles River CD1, females, in feed, site: small intestine, lesion: carcinoma, dosed 113 weeks, study length 113 weeks) 2110 mg/kg/day | TD50 (mouse, strain Charles River CD1, females, in feed, site: small intestine, lesion: several types, types named in the paper, dosed 113 weeks, study length 113 weeks) 1740 mg/kg/day | TD50 (mouse, strain Charles River CD1, males, in feed, site: small intestine, lesion: adenoma, dosed 113 weeks, study length 113 weeks) 8280 mg/kg/day | TD50 (mouse, strain Charles River CD1, males, in feed, site: small intestine, lesion: carcinoma, dosed 113 weeks, study length 113 weeks) 3500 mg/kg/day | TD50 (mouse, strain Charles River CD1, males, in feed, site: small intestine, lesion: several types, types named in the paper, dosed 113 weeks, study length 113 weeks) 2690 mg/kg/day | TD50 (rat, strain Charles River CD (Sprague-Dawley), males, in feed, site: kidney, lesion: several types, types named in the paper, dosed 104 weeks, study length 104 weeks) 2690 mg/kg/day | TD50 (rat, strain Wistar, females, in feed, site: uterus, lesion: sarcoma, dosed 130 weeks, study length 130 weeks) 1700 mg/kg/day
